According to US20250188085A1, “COMPOSITIONS AND METHODS FOR INHIBITION OF RAS” (THERAS, INC., priority 2022, published 2025):
Like-named read-outs stand apart in the source and are kept apart here.

Experiments:
[1] = biological target: T1, Avi-KRAS G12C (1-169) GppNHp/RAF1 RBD-3×FLAG (52-151) (Homo sapiens, UniProt P01116, G12C); experiment: Raf1 RBD-KRAS G12C-GppNHp disruption (protein:protein interaction HTRF assay); type: biochemical
T1 construct: Avi-KRAS G12C (1-169) GppNHp/RAF1 RBD-3×FLAG (52-151)
Experimental: A protein: protein (PPI) interaction Homogeneous Time Resolved Fluorescence (HTRF) assay was used to determine the effectiveness of compounds of the present disclosure in disrupting KRAS G12C protein and effector (RAF1 or PIK3CA) binding.
The HTRF assay used the following reagents and proteins: 50 nM Avi-KRAS G12C Q25A (1-169) GppNHp/3×FLAG-PI3K CA (157-299); 50 nM Avi-KRAS G12C (1-169) GppNHp/RAF1 RBD-3×FLAG (52-151); 35 nM Avi-PI3K RBD-3×FLAG; Assay Buffer: 50 mM Tris pH 7.5, 100 mM NaCl, 5 mM MgCl2, 0.1% BSA, 0.01% Tween 20, 10% DMSO; Bead Buffer: 50 mM Tris pH 7.5, 0.01% Tween 20; Assay volume: 20 μL (384 well plate-low volume format); and Compound titration: 30-0.02 μM, 3× dilution series.
The HTRF assay employed the following protocol:
Compounds were dispensed in assay plate (384-well, Grenier Bione #784075) using Echo (model 555) with dose response settings: 200 nL final volume, titration from 100 μM as a 10-point dilution series. KRAS proteins were prepared in assay buffer, and dispensed on plates, 5 μL per well, then incubated for 1 h at room temperature, with 700 rpm shaking. RAF1 RBD and PI3K RBD CA were prepared in assay buffer, dispensed onto plates, 5 μL per well, and then incubated for 1 h at room temperature, with 700 rpm shaking. Reagent mix was then prepared and dispensed on plates, 10 μL per well, and then incubated for 1 h at room temperature, with 700 rpm shaking.
Plates were analyzed on an Envision plate reader using the following setting: Excitation 320 nm, Bandwidth 75 nm; Emission 615 nm, Bandwidth 85 nm; Gain 100%; Flashes 100; Lag 60 μs. Data was reported as percentage of activity, with DMSO as 100%. Data was plotted and analyzed using Prism 8.

pERK in NCI-H358 cells = experiment: Cell-based pERK HTRF assay; details: 30 min incubation, read-out: pERK in NCI-H358 cell inhibition IC50
Experimental: pERK assays (Perkin Elmer) were used to determine the effectiveness of compounds of the present disclosure in disrupting KRAS G12C protein/effector signaling in cells.
On Day 1, cells (NCI-H358) were seeded into 96-well plates at 4×10^4 cells/well in complete growth media (RPMI, 10% FBS).
On Day 2, cells were treated with compounds at 0.25% DMSO. The source plate was created with compounds diluted in media at 5-fold the final assay concentration. The compounds were run in a 9-point concentration curve starting at 75 μM, with a 3-fold dilution between concentrations. 20 μL was transferred onto the cell plates (final volume in wells was 100 μL). Plates were harvested after 30 min incubation by aspirating media and adding kit-supplied 1× supplemented lysis buffer to all wells (75 μl per well). Plates were then placed on a plate shaker and incubated at 850 rpm for an additional 30 min.
Antibody mixture solution was prepared by diluting aliquoted d2 and Eu Cryptate antibodies 1:20 in kit supplied detection buffer, then mixed the diluted antibodies solutions (1:1 v:v). 4 μL of this solution was then added to a 384-well detection plate (Perkin Elmer; 6008230).
Samples were homogenized by pipetting up and down and then transferred (16 μL of cell lysates) from the 96-well cell culture plate to two wells of the HTRF 384-well detection plate containing the antibody solution. Plates were centrifuged (524 g for Imin) and allowed to incubate between 4 and 24 h at room temperature. Maximum signal is reached after 4 h incubation time and remains stable over a period of 24 hours. Therefore, readings can be made between 4 and 24 h of incubation. Plates were centrifuged again (524 g for Imin) and analyzed on the En Vision plate reader using the following settings: Excitation 320 nm, Bandwidth 75 nm; Emission 615 nm, Bandwidth 85 nm; Gain 100%; Flashes 100; Lag 60 μs.

[2] = biological target: T2, GppNHp-loaded KRAS4b (amino acids 1-169) G12C/C118S protein (Homo sapiens, UniProt P01116, C118S/G12C); experiment: Covalent cysteine 12 modification by MALDI-TOF MS, GppNHp-loaded KRAS G12C; type: binding; details: 15 minutes reaction time point
T2 construct: KRAS4b (amino acids 1-169) G12C/C118S protein; made in house
Experimental: (§1) Reaction: 1 μM of GppNHp-, GTP-, or GDP-loaded KRAS4b (amino acids 1-169) G12C/C118S protein (produced in-house by Protein Expression Laboratory, FNLCR/Leidos Biomed) in 20 mM 4-(2-hydroxyethyl)-1-piperazineethanesulfonic acid (HEPES) buffer containing 150 mM NaCl, 1 mM MgCl2, pH 7.3 was prepared freshly before assay. Ten-μL aliquots of protein were dispensed onto low volume 384-well plate, then 375 nL DMSO, and 25 nL of tested compounds from 5 mM DMSO stocks were added to appropriate wells using ECHO 555 acoustic liquid handler (Labcyte Inc.). For each reaction/assay, three blanks were prepared by mixing 10 μL of protein solution with 400 nL DMSO. The contents of the wells were carefully mixed by aspiration, and then each plate was sealed with an adhesive cover, centrifuged at 2000 g for 1 minute, and kept in the dark at room temperature until 5 min, 15 min, 30 min, or 2 h collections.
(§2) Target pretreatment: Before each assay MALDI target (Bruker MPT 384 ground steel BC) was pre-treated by pipetting on each spot 0.75 μL of saturated sinapinic acid in acetonitrile (ACN).
(§3) Sample preparation: At collection time point, 2 μL of reaction mixtures were pipetted out into 20 μL MALDI matrix solution (saturated solution of sinapinic acid in 1:1 ACN:water solution containing 0.75% trifluoroacetic acid (TFA)) deposited on 384 well polypropylene plate. Resulting solution was mixed by aspiration, centrifuged at 2000 g for 1 minute, then 1 μL aliquots were dispensed on pre-treated MALDI target using Beckman Coulter Biomek FXP 96/384-Span-8 Laboratory Automation Workstation. Finally, the MALDI target was dried under mild vacuum to produce spots with fine crystalline structure.
(§4) Measurements: MALDI-TOF measurements were performed on a Bruker Daltonics rapiflex Tissuetyper TOF-TOF mass spectrometer using linear mode and mass range from 18.6 to 21.6 kDa. Detector gain was set to 3.3× (483 V), sample rate to 5 GS/s, real time smoothing to medium (175 MHz), laser smart beam pattern was set to: “MS Thin Layer M5”, and the laser frequency was 10000 Hz. Spectra were automatically collected using custom Auto Xecute method. Laser power was auto adjusted using fuzzy control. The peak selection range was set to be between 19000 and 21500 Da. Peak evaluation uses half width parameter set to be smaller than 40 Da for processed spectrograms (centroid peak detection; smoothed by SavitzkyGolay algorithm using 7 m/z width and 2 cycles; baseline was subtracted using median algorithm with flatness 1 and median level 0.01). Fuzzy control used Proteins/Oligonucleotides protocol with minimum half width 1/10 times above threshold. Up to 40000 satisfactory shots were collected in 10000 shot steps. Dynamic termination was implemented to finish data collection when peak signal/noise ratio was reaching value of 50.
(§5) Spectra processing: Spectra were smoothed by SavitzkyGolay algorithm using 7 m/z width and three cycles. Centroid peak detection algorithm was used with signal to noise threshold set to 6, relative intensity threshold 4%, peak width 10 m/z and median baseline subtraction using flatness of 1 and median level of 0.01. Peak intensity and area under the peak were evaluated and recorded for all peaks between 19,300 Da and 21,550 Da.
(§6) Calculation of percent modification: Percent modification was calculated as a ratio of peak height for protein modified by compound to sum of peak height of remaining protein plus peak height for protein modified by compound. If multiple modifications were observed each was calculated as a ratio of peak height for given modification versus sum of peak heights for all observed protein species. Data reported in Table 5 are from 15 minutes reaction time point.

[3] = biological target: T3, GDP-loaded KRAS4b (amino acids 1-169) G12C/C118S protein (Homo sapiens, UniProt P01116, C118S/G12C); experiment: Covalent cysteine 12 modification by MALDI-TOF MS, GDP-loaded KRAS G12C; type: binding; details: 15 minutes reaction time point
T3 construct: KRAS4b (amino acids 1-169) G12C/C118S protein; made in house
Experimental: as §1, §2, §3, §4, §5, §6

Row | SMILES | IC50 [1] [nM] | IC50 (pERK in NCI-H358 cells; Homo sapiens, NCI-H358, 0.5 h) [nM] | GppNHp-KRAS G12C percent of modification [2] | GDP-KRAS G12C percent of modification [3] | IC50 (pERK in NCI-H358 cells) [nM]
1 | C=CC(=O)N1CC[C@@H](Oc2nc(OC[C@@]34CCCN3C[C@H](F)C4)nc3c(F)c(-c4ccc(F)c5sc(N)nc45)c(Cl)cc23)C1 (atropisomer, axis not shown) [Compound 3] | ≤ 500 | ≤ 100 | A (percent of modification ≥70%) | A (percent of modification ≥70%) | –
2 | C=CC(=O)N1CC[C@H](Oc2nc(OC[C@@]34CCCN3C[C@H](F)C4)nc3c(F)c(-c4ccc(F)c5sc(N)nc45)c(Cl)cc23)C1 (atropisomer, axis not shown) [Compound 4] | > 20000 | > 1000 | D (percent of modification <10%) | D (percent of modification <10%) | –
3 | C=CC(=O)N1CC[C@H](Oc2nc(OC[C@@]34CCCN3C[C@H](F)C4)nc3c(F)c(-c4ccc(F)c5sc(N)nc45)c(C(F)(F)F)cc23)C1 (atropisomer, axis not shown) [Compound 5] | 5000 to 20000 | – | D (percent of modification <10%) | D (percent of modification <10%) | > 1000
4 | C=CC(=O)N1CC[C@H](Oc2nc(OC[C@@]34CCCN3C[C@H](F)C4)nc3c(F)c(-c4ccc(F)c5sc(N)nc45)c(Cl)cc23)C1 (atropisomer, axis not shown) [Compound 8] | 500 to 5000 | – | D (percent of modification <10%) | C (10%≤modification <50%) | > 1000
5 | C=CC(=O)N1CC[C@H](Oc2nc(OC[C@@]34CCCN3C[C@H](F)C4)nc3c(F)c(-c4ccc(F)c5sc(N)nc45)c(C(F)(F)F)cc23)C1 (atropisomer, axis not shown) [Compound 9] | 500 to 5000 | – | D (percent of modification <10%) | C (10%≤modification <50%) | 100 to 1000
6 | C=CC(=O)N1CC[C@@H](Oc2nc(OC[C@@]34CCCN3C[C@H](F)C4)nc3c(F)c(-c4ccc(F)c5sc(N)nc45)c(Cl)cc23)C1 (atropisomer, axis not shown) [Compound 10] | 500 to 5000 | – | D (percent of modification <10%) | D (percent of modification <10%) | 100 to 1000
7 | C=CC(=O)N1CC[C@@H](Oc2nc(OC[C@@H]3CC(C)(C)CN3C)nc3c(F)c(-c4ccc(F)c5sc(N)nc45)c(C(F)(F)F)cc23)C1 (atropisomer, axis not shown) [Compound 16] | 500 to 5000 | – | C (10%≤modification <50%) | A (percent of modification ≥70%) | 100 to 1000
8 | C=CC(=O)N1CC[C@@H](Oc2nc(OC[C@@H]3CC(C)(C)CN3C)nc3c(F)c(-c4ccc(F)c5sc(N)nc45)c(C(F)(F)F)cc23)C1 (atropisomer, axis not shown) [Compound 17] | > 20000 | – | D (percent of modification <10%) | D (percent of modification <10%) | > 1000
9 | C=CC(=O)N1CC[C@@H](Oc2nc(OC[C@@H]3C[C@@H](F)CN3C)nc3c(F)c(-c4ccc(F)c5sc(N)nc45)c(C(F)(F)F)cc23)C1 (atropisomer, axis not shown) [Compound 18] | ≤ 500 | – | C (10%≤modification <50%) | A (percent of modification ≥70%) | ≤ 100
10 | C=CC(=O)N1CC[C@@H](Oc2nc(OC[C@@H]3C[C@@H](F)CN3C)nc3c(F)c(-c4ccc(F)c5sc(N)nc45)c(C(F)(F)F)cc23)C1 (atropisomer, axis not shown) [Compound 19] | 5000 to 20000 | – | D (percent of modification <10%) | D (percent of modification <10%) | > 1000
